Laboratory results: patent publication US20040132755A1, “Isoxazoles and uses thereof” (priority 2002, published 2004)

System: LPS-induced tumor necrosis factor-α (TNF-α) production in mixed glial cells
Experiment: In vitro CNS inflammation assay
Type: cell-based
Conditions: Rattus norvegicus, Glial cell, 6 h, LPS 50 ng/ml, TNF-α ELISA
Method: This protocol describes the procedure used to induce experimental inflammation by lipopolysacchride (LPS) in cultured CNS mixed glial cells. The anti-inflammatory effect of test compounds was evaluated against LPS-induced tumor necrosis factor-α (TNF-α) production in mixed glial cells.
The following steps were performed the day of the assay:
The mixed glial cells (7 days from initial culture) were replenished with mixed glial culture media consist of 50:50:10:1 combination of DMEM (high glucose: Invitrogen Corp), F-12 (Invitrogen Corp), 100% fetal bovine serum and 100×N-2 supplement (Invitrogen Corp). These mixed glial cells were prepared according to Park L C, Calingasan N Y, Uchida K, Zhang H, Gibson G E. (2000) “Metabolic impairment elicits brain cell type-selective changes in oxidative stress and cell death in culture.” J Neurochem 74(1):114-124 with some modification. Briefly, rat […] forebrains (1-2 day old) were isolated, triturated and plated on 96-well plates (20,000 cells per well) in mixed glial media in 5% CO2 incubator at 37° C. […]
The quantitative determination of TNF-αpresent in cell culture medium produced by mixed glial cells was performed using a solid phase sandwich enzyme linked immno-sorbent assay (ELISA) method based on the protocol and reagents provided by Biosource rat TNF-α ELISA kit (Biosource International).

OC1CCN(Cc2onc(-c3ccc(F)cc3)c2-c2ccnc(NC3CCCCC3)n2)CC1 [I-1]
IC50: ≤ 1 µM
